Tests used:
[1] = target: dipeptidyl peptidase IV (DPP IV) (Homo sapiens, UniProt P27487); experiment: Metabolic stability towards dipeptidyl peptidase IV; format: in vitro ADME
Experimental: Each compound is dissolved in 50 mg/ml of BSA in an aqueous 1% trifluoroacetic acid solution to obtain a concentration of 1 mg/ml.
50 μl samples of the above-prepared solution containing 1 mg/ml of the peptide are added to 940 μl of 0.1M TRIS, pH 8.0. After analysis of the solution by HPLC to determine the amount of peptide, 10 μl of an aqueous solution containing 48 milli-units of dipeptidyl peptidase IV (DPP IV) are added, and the samples are analysed by HPLC at time T0 and after incubation for 10 minutes at 37° C.
The measurement results enable evaluation of the amount of peptide remaining and are expressed as a percentage in relation to T0.

GLP-1 receptor [2] = target: T1, GLP-1 receptor (Rattus norvegicus, UniProt P32301); experiment: GLP-1 receptor binding study (RIN T3 membranes, [125I]-GLP-1); conditions: [125I]-GLP-1, 45 min at 37° C., read-out: affinity (IC50)
T1 construct: endogenous in cells; host or cells: RIN T3 cells (membranes in A1, whole cells in A2)
T1 sequence (P32301 22-463): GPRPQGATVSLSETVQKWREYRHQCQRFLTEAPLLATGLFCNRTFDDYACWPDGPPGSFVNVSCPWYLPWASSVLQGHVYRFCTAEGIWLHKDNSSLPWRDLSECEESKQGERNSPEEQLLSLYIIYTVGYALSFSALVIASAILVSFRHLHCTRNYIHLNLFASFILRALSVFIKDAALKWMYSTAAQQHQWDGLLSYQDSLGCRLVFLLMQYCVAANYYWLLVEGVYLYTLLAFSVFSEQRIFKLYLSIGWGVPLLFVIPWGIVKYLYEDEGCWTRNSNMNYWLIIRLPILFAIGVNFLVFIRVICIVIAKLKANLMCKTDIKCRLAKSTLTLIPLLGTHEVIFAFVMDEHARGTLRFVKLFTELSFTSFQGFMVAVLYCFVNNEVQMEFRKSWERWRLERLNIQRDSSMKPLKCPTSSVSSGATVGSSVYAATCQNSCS
Experimental: The GLP-1 receptor binding studies were carried out using RIN T3 membranes in a […] Tris-HCl buffer pH 7.5 containing 4% BSA and […] of bacitracin. The membranes (20 to 30 μg) are incubated in a final volume of 500 μl with approximately 15 fmol of [125I]-GLP-1 (50,000 cpm) and the cold competitor for 45 min. at 37° C. The reaction is stopped by the addition of 750 μl of cold KRP buffer, pH 7.5, containing 3% BSA. The mixture is centrifuged at 12,000×g (4° C., 5 min). The residue is resuspended in 1 ml of cold KRP buffer and sedimented by a further centrifugation, and the radioactivity is measured. The results are expressed as IC50.

in vitro = in vitro ADME; conditions: human, plasma
Experimental: An aliqout of 50 μg/ml of a solution containing the peptide to be studied is incubated in human plasma at 37° C. An HPLC linear analysis method allows measurement of the amount of peptide at time T0, then after incubation for 5, 10, 15, 30 and 60 minutes.

GLP-1 receptor [3] = target: T1, GLP-1 receptor; experiment: Agonist character: cyclic AMP production in RIN T3 cells; format: cell-based; conditions: 20 minutes at 25° C., 100% = cAMP induced by 10^−8M GLP-1
Experimental: The agonist character of the compounds of the invention was determined by measuring the production of cyclic AMP after activation of the receptor by the different products being tested.
RIN T3 cells are cultured for 6 days and the culture medium is chanced 1 day before the experiment. The cells (3×10^5 per well) are washed twice with DMEM before the addition of 0.5 ml of DMEM containing 1% BSA, 0.2 ml of IBMX and the peptide being tested. After incubation for 20 minutes at 25° C., the intracellular cAMP is extracted, succinylated and quantified by radioimmunoassay.
The reference value of 100% corresponds to the production of cAMP induced by a concentration of 10^−8M GLP-1 and the value 0% corresponds to the basal production in the absence of GLP-1.

Sequence of dipeptidyl peptidase IV (DPP IV) (P27487 whole entry, species assumed): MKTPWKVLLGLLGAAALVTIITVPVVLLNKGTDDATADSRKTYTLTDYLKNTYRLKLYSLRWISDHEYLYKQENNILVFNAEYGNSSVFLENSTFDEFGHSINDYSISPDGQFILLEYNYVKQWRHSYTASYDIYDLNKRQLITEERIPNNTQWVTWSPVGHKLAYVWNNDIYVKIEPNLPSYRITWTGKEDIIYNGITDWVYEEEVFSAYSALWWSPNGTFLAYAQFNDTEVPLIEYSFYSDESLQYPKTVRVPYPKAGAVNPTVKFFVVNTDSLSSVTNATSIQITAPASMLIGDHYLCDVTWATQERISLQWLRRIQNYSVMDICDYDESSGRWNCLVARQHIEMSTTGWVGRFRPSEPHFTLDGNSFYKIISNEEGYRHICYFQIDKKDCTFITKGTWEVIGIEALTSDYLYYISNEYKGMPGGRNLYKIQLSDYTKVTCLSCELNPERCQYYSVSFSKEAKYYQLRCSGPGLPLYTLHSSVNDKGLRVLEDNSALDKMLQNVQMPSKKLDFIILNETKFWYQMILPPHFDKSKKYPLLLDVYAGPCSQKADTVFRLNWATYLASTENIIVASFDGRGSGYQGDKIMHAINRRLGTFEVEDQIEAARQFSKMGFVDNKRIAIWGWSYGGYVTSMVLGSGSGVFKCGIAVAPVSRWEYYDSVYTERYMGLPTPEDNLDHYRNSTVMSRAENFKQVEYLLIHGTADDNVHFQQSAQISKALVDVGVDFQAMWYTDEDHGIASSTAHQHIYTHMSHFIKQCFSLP

| remaining at 10 min, 50 μg/ml ([1]; isolated enzyme dpp iv, pH 8) [%] | IC50 (GLP-1 receptor [2]) [nM] | remaining at 5 min, 50 μg/ml (in vitro) [%] | remaining at 10 min, 50 μg/ml (in vitro) [%] | remaining at 0.25 h, 50 μg/ml (in vitro) [%] | remaining at 0.5 h, 50 μg/ml (in vitro) [%] | remaining at 1 h, 50 μg/ml (in vitro) [%] | EC50 (GLP-1 receptor [3]) [nM] | Compound | DDP IV % peptide remaining ([1]; incubation time 10 minutes, 37° C., 48 milli-units DPP IV, 0.1M TRIS pH 8.0, relative to T0) [%] |
| --- | --- | --- | --- | --- | --- | --- | --- | --- | --- |
| – | – | – | – | – | – | – | – | Glucagon-Like Peptides-1 (7-37) and (7-36) NH2 [^tGLP1, reference compound] | 8 |
| 100 | 0.33 | 100 | 100 | 100 | 100 | 100 | 1.02 | CC[C@H](C)[C@H](NC(=O)[C@H](Cc1ccccc1)NC(=O)[C@H](CCC(=O)O)NC(=O)[C@H](CCCCN)NC(=O)[C@H](C)NC(=O)[C@H](C)NC(=O)[C@H](CCC(N)=O)NC(=O)CNC(=O)[C@H](CCC(=O)O)NC(=O)[C@H](CC(C)C)NC(=O)[C@H](Cc1ccc(O)cc1)NC(=O)[C@H](CO)NC(=O)[C@H](CO)NC(=O)[C@@H](NC(=O)[C@H](CC(=O)O)NC(=O)[C@H](CO)NC(=O)[C@@H](NC(=O)[C@H](Cc1ccccc1)NC(=O)[C@@H](NC(=O)CNC(=O)[C@H](CCC(=O)O)NC(=O)[C@@H](C)NC(=O)[C@@H](N)Cc1c[nH]cn1)[C@@H](C)O)[C@@H](C)O)C(C)C)C(=O)N[C@@H](C)C(=O)N[C@@H](Cc1c[nH]c2ccccc12)C(=O)N[C@@H](CC(C)C)C(=O)N[C@H](C(=O)N[C@@H](CCCCN)C(=O)NCC(=O)NCC(N)=O)C(C)C [Example 7] | – |
